Laboratory results: patent publication US20260217699A1, “BERBERINE TAUROURSODEOXYCHOLATE COMPOSITIONS AND METHODS THEREOF” (SHENZHEN HIGHTIDE BIOPHARMACEUTICAL LTD., priority 2023, published 2026)
Read-outs that look alike come from different tables or passages of the source.

Key:
[1] = type: physicochemical; details: for Purity/%: initial purity 99.45%
Protocol: The standard XRPD patterns were collected using a Panalytical EMPYREAN (PANalytical, UK). The X-ray source was a Cu tube that was operated at 45 kV and 40 mA. Powder samples were prepared on zero-background Si holders using manual light pressure to keep the sample surface flat. Each sample was analyzed from 3 to 45° (2θ) with an effective step size of 0.013° 20. The measurement time of each sample was 3.5 min.
The stability of Form A was studied under high temperature (60° C.), high humidity (25° C./92.5% RH), light (25° C./4500 Lux), and accelerated (40° C./75% RH) conditions, and the samples were taken at 7 and 15 days for XRPD characterization and HPLC tests, respectively, and the results are shown in Tables 3-4 and FIG. 17.

[2] = Rapid dynamic vapor sorption (Fast DVS) of Form A; type: physicochemical
Protocol: (§1) The synthesized BTUDC was designated as crystalline form A (Form A), and its XRPD diffraction and other related characterization data are shown in FIGS. 11-15. […] (peak at 43° C.), and an endothermic peak at about 280° C.

[3] = Thermal transcrystallization experiment (variable temperature XRPD); type: physicochemical; details: heating to 150° C. and back to room temperature
Protocol: The form conversion by heating was carried out using an online variable temperature XRPD Malvern PANalytical Aeris (Malvern Panalytical, UK). The X-ray source was a Cu tube that was operated at 40 kV and 7.5 mA. Powder samples were prepared on zero-background Si holders using manual light pressure to keep the sample surface flat. Each sample was analyzed from 3 to 40° (2θ) with an effective step size of 0.02° 20. The measurement time of each sample was 13 min. The sample was placed on a BTS500 hot stage (Anton Paar, AT) to collected XRPD at RT, heated to the target temperature at 20° C./min and held for 10 min before XRPD analysis. The sample was then cooled to RT and characterized by XRPD.
as §1

[4] = Accelerated 40° C./75% RH, 7 Days
[5] = Accelerated 40° C./75% RH, 15 Days
[6] = High Humidity 25° C./92.5% RH, 7 Days
[7] = High Humidity 25° C./92.5% RH, 15 Days
[8] = Light Exposure 25° C./4500 Lux, 7 Days
[9] = Light Exposure 25° C./4500 Lux, 15 Days

COc1ccc2cc3[n+](cc2c1OC)CCc1cc2c(cc1-3)OCO2.C[C@H](CCC(=O)NCCS(=O)(=O)[O-])[C@H]1CC[C@H]2[C@@H]3[C@@H](O)C[C@@H]4C[C@H](O)CC[C@]4(C)[C@H]3CC[C@]12C [Form A, berberine tauroursodeoxycholate]
XRPD Changes [1, 4]: No
Purity/% [1, 4]: 99.44%
XRPD Changes [1, 5]: No
Purity/% [1, 5]: 99.41%
Relative Peak Area (%) ([1]; HPLC main peak RRT 1.00, Accelerated 15 Days, Day 0: 99.45): 99.41%
Relative Peak Area (%) ([1]; HPLC main peak RRT 1.00, High Humidity 15 Days, Day 0: 99.45): 99.44%
Relative Peak Area (%) ([1]; HPLC main peak RRT 1.00, High Temp. 15 Days, Day 0: 99.45): 99.24%
Relative Peak Area (%) ([1]; HPLC main peak RRT 1.00, Light Exposure 15 Days, Day 0: 99.45): 98.53%
Relative Peak Area (%) ([1]; HPLC peak RRT 0.39, Light Exposure 15 Days, Day 0: /): 0.05%
Relative Peak Area (%) ([1]; HPLC peak RRT 0.55, Light Exposure 15 Days, Day 0: /): 0.06%
Relative Peak Area (%) ([1]; HPLC peak RRT 0.70, Accelerated 15 Days, Day 0: 0.05): 0.07%
Relative Peak Area (%) ([1]; HPLC peak RRT 0.70, High Humidity 15 Days, Day 0: 0.05): 0.07%
Relative Peak Area (%) ([1]; HPLC peak RRT 0.70, High Temp. 15 Days, Day 0: 0.05): 0.10%
Relative Peak Area (%) ([1]; HPLC peak RRT 0.70, Light Exposure 15 Days, Day 0: 0.05): 0.77%
Relative Peak Area (%) ([1]; HPLC peak RRT 0.73, Light Exposure 15 Days, Day 0: /): 0.03%
Relative Peak Area (%) ([1]; HPLC peak RRT 0.76, Light Exposure 15 Days, Day 0: /): 0.07%
Relative Peak Area (%) ([1]; HPLC peak RRT 0.79, Light Exposure 15 Days, Day 0: /): 0.05%
Relative Peak Area (%) ([1]; HPLC peak RRT 0.82, Accelerated 15 Days, Day 0: 0.13): 0.13%
Relative Peak Area (%) ([1]; HPLC peak RRT 0.82, High Humidity 15 Days, Day 0: 0.13): 0.13%
Relative Peak Area (%) ([1]; HPLC peak RRT 0.82, High Temp. 15 Days, Day 0: 0.13): 0.13%
Relative Peak Area (%) ([1]; HPLC peak RRT 0.82, Light Exposure 15 Days, Day 0: 0.13): 0.11%
Relative Peak Area (%) ([1]; HPLC peak RRT 0.84, Accelerated 15 Days, Day 0: 0.06): 0.07%
Relative Peak Area (%) ([1]; HPLC peak RRT 0.84, High Humidity 15 Days, Day 0: 0.06): 0.06%
Relative Peak Area (%) ([1]; HPLC peak RRT 0.84, High Temp. 15 Days, Day 0: 0.06): 0.06%
Relative Peak Area (%) ([1]; HPLC peak RRT 0.84, Light Exposure 15 Days, Day 0: 0.06): 0.06%
Relative Peak Area (%) ([1]; HPLC peak RRT 0.90, Accelerated 15 Days, Day 0: 0.31): 0.32%
Relative Peak Area (%) ([1]; HPLC peak RRT 0.90, High Humidity 15 Days, Day 0: 0.31): 0.30%
Relative Peak Area (%) ([1]; HPLC peak RRT 0.90, High Temp. 15 Days, Day 0: 0.31): 0.48%
Relative Peak Area (%) ([1]; HPLC peak RRT 0.90, Light Exposure 15 Days, Day 0: 0.31): 0.27%
XRPD Changes [1, 6]: No
Purity/% [1, 6]: 99.44%
XRPD Changes [1, 7]: No
Purity/% [1, 7]: 99.44%
XRPD Changes ([1]; High Temp. 60° C., 7 Days): No
Purity/% ([1]; High Temp. 60° C., 7 Days): 99.28%
XRPD Changes ([1]; High Temp. 60° C., 15 Days): No
Purity/% ([1]; High Temp. 60° C., 15 Days): 99.24%
XRPD Changes [1, 8]: No
Purity/% [1, 8]: 98.92%
XRPD Changes [1, 9]: No
Purity/% [1, 9]: 98.53%
change in chemical purity (HPLC) ([1]; high temperature, high humidity and accelerated conditions for 15 days): no significant change
change in chemical purity (HPLC) ([1]; light conditions for 15 days): significant decrease
adsorption weight gain ([2]; at 80% RH): about 0.46%
desorption weight gain ([2]; at 80% RH): about 0.49%
adsorption weight gain ([2]; at 95% RH): about 0.74%
change in crystalline shape after the DVS test (XRPD) ([2]; compared to the pre-test): did not undergo any change in crystalline shape
crystalline form during heating [3]: remained unchanged
